Measured values reported in paper PMC11784839, “Monoaminergic neurotransmitters are bimodal effectors of tau aggregation” (Science Advances, 2025).
*1 amine or outer side, *2 acyl side, *3 side chain or, on linkers, in order; H or OH if unused. Where a SMILES comes first, the peptide text is derived from it. Bridges are numbered along the chain shown (N, C = ends). [ ]: non-standard residue; d: D form. hTyr(3S-OH,4S-OH,3'-OSO3H) = N[C@H](C(=O)O)[C@H](O)[C@@H](O)c1ccc(O)c(OS(=O)(=O)O)c1; Orn(4R-OH,5R-OH) = O=C([C@H](C[C@@H](O)[C@@H](O)N[*:3])N[*:1])[*:2]; Pro(3S-OH,4S-Me) = C[C@H]1CN[C@H](C(=O)O)[C@H]1O; Gln(3R-OH) = NC(=O)C[C@@H](O)[C@H](N)C(=O)O; Hyp = O=C(O)[C@@H]1C[C@@H](O)CN1

Molecular target: tau (Homo sapiens, UniProt P10636)
Experiment: MCE Phenols Library screening, tau biosensor cell seeding assay (AvZ)
Assay type: cell-based
Conditions: for Z repl 1 / Z Repl 2: Z score; for Z repl 1 / raw data 1: replicate 1; for Z Repl 2 / raw data 2: replicate 2; for AvZ (average z score of seeding, SDs from the mean level of seeding): 10 μM phenol in cell cultures, AD brain homogenate preincubated 16 hours, two biological replicates, positive = catalyzes seeding, negative = inhibits
[1] = average Z score of the two replicates, MCE Phenols Library screen
[2] = average puncta of the two replicates
[3] = average Z score of two replicates, Phenols Library screen
[4] = average Z score of the two replicates, tau seeding
[5] = average Z score of the two replicates, tau biosensor seeding, MCE Phenols Library screen

tau, sequence (P10636 623-695 limits assumed): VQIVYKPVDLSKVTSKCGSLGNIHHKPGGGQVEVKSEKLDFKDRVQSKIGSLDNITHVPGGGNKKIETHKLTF

Structure (SMILES) | Z repl 1 | Z Repl 2 | av Z [1] | av puncta [2] | raw data 1 (puncta) | raw data 2 (puncta) | av puncta (average of raw data 1 and 2) | av Z [3] | av Z [4] | AvZ (average z score of seeding, SDs from the mean level of seeding) | raw data 1 (raw puncta) | raw data 2 (raw puncta) | av Z [5]
COc1cc(CC(C)C(C)Cc2ccc(O)c(OC)c2)ccc1O (centres unmarked) [Dihydroguaiaretic acid] | -0.958 | -0.625 | -0.792 | – | 14843.2 | 6088.67 | 10465.9 | – | – | – | – | – | –
O=C1c2c(O)cc(O)cc2O[C@H](c2cc(O)c(O)c(O)c2)[C@H]1O [Dihydromyricetin] | -1.346 | -0.885 | -1.115 | – | 10190.2 | 3319.03 | – | – | – | – | – | – | –
COc1cc(CCCO)cc(OC)c1O [Dihydrosinapyl alcohol] | -0.789 | 0.221 | – | 16004.7 | – | – | – | – | – | -0.284 | 16882.6 | 15126.8 | –
COc1cc(O)ccc1/C=C/C(=O)c1ccc(O)cc1 [Echinatin] | -1.092 | -0.742 | -0.917 | – | 13242.9 | 4837.17 | 9040.03 | – | – | – | – | – | –
Cc1cc(O)c2c(c1)C(=O)c1cc(O)cc(O)c1C2=O [Emodin] | 0.139 | -0.692 | -0.277 | 16696.4 | – | – | – | – | – | – | 28020.6 | 5372.21 | –
O=C1C[C@@H](c2ccc(O)c(O)c2)Oc2cc(O)cc(O)c21 [Eriodictyol] | -0.756 | 0.192 | -0.282 | 16042.6 | – | – | – | – | – | – | 17267.7 | 14817.6 | –
C[C@]12CC[C@@H]3c4ccc(O)cc4CC[C@H]3[C@@H]1C[C@@H](O)[C@@H]2O [Estriol] | 0.006 | 0.639 | – | – | 26418.8 | 19589.9 | 23004.4 | – | 0.322 | – | – | – | –
C#C[C@]1(O)CC[C@H]2[C@@H]3CCc4cc(O)ccc4[C@H]3CC[C@@]21C [Ethynyl Estradiol] | 0.578 | 0.204 | – | – | 33285.2 | 14948.5 | 24116.9 | – | 0.391 | – | – | – | –
C=CCc1ccc(O)c(OC)c1 [Eugenol] | -0.386 | -0.861 | – | 12641.9 | 21709.5 | 3574.2 | – | – | – | -0.624 | – | – | –
COc1ccc(-c2cc(=O)c3c(O)c(OC)c(OC)cc3o2)cc1O [Eupatorin] | 0.938 | 0.779 | – | – | 37615.7 | 21089.9 | 29352.8 | – | – | – | – | – | 0.859
COc1cc(/C=C/C(=O)[O-])ccc1O.[Na+] [Ferulic acid (sodium)] | -1.081 | -0.257 | – | 11696.2 | 13369.9 | 10022.5 | – | – | – | -0.669 | – | – | –
COc1cc(/C=C/C(=O)O)ccc1O [Ferulic acid] | -0.555 | -0.346 | – | 14374.8 | – | – | – | – | – | -0.451 | 19680.6 | 9068.99 | –
COc1cc(O)c(C(=O)/C=C/c2ccccc2)c(OC)c1 [Flavokawain B] | -0.296 | -0.062 | – | – | 22793.1 | 12106.3 | 17449.7 | -0.179 | – | – | – | – | –

Second part, led by results:

Z repl 1 | Z Repl 2 | av Z [1] | av puncta [2] | raw data 1 (puncta) | raw data 2 (puncta) | av puncta (average of raw data 1 and 2) | av Z [3] | av Z [4] | Structure (SMILES) | AvZ (average z score of seeding, SDs from the mean level of seeding) | raw data 1 (raw puncta) | raw data 2 (raw puncta) | av Z [5]
-0.987 | -0.442 | -0.715 | 11271.3 | 14500 | 8042.62 | – | – | – | O=C1c2ccc(O)cc2OCC1c1ccc(O)cc1 (centres unmarked) [Dihydrodaidzein] | – | – | – | –
-0.147 | 0.084 | – | – | 24585.9 | 13668.2 | 19127 | -0.031 | – | O=C1c2c(O)cc(O)cc2O[C@H](c2ccc(O)cc2)[C@H]1O [Dihydrokaempferol] | – | – | – | –
-0.334 | -0.918 | -0.626 | 12650.9 | 22335.7 | 2966.05 | – | – | – | COc1cc2c(O)c3c(c(-c4ccc5c(c4)OCO5)c2cc1OC)C(=O)OC3 [Diphyllin] | – | – | – | –
-1.043 | -0.067 | -0.555 | 12935.6 | 13826.2 | 12045.1 | – | – | – | O=c1oc2c(O)c(O)cc3c(=O)oc4c(O)c(O)cc1c4c23 [Ellagic acid] | – | – | – | –
0.113 | -0.367 | – | – | 27700.1 | 8851.57 | 18275.8 | -0.127 | – | Cc1cc(O)c2c(c1)C(=O)c1cc(O)cc(O[C@@H]3O[C@H](CO)[C@@H](O)[C@H](O)[C@H]3O)c1C2=O [Emodin-8-glucoside] | – | – | – | –
-1.302 | -0.744 | -1.023 | – | 10713.2 | 4823.23 | 7768.23 | – | – | COc1ccc(-c2oc3c(CC=C(C)C)c(O[C@@H]4O[C@H](CO)[C@@H](O)[C@H](O)[C@H]4O)cc(O)c3c(=O)c2O[C@@H]2O[C@@H](C)[C@H](O)[C@@H](O)[C@H]2O[C@@H]2O[C@H](CO)[C@@H](O)[C@H](O)[C@H]2O)cc1 [Epimedin A] | – | – | – | –
0.357 | 0.482 | – | – | 30639 | 17918.4 | 24278.7 | – | 0.42 | COc1ccc(-c2oc3c(CC=C(C)C)c(O[C@@H]4O[C@H](CO)[C@@H](O)[C@H](O)[C@H]4O)cc(O)c3c(=O)c2O[C@@H]2O[C@@H](C)[C@H](O)[C@@H](O)[C@H]2O[C@@H]2OC[C@@H](O)[C@H](O)[C@H]2O)cc1 [Epimedin B] | – | – | – | –
0.582 | -0.181 | – | – | 33332 | 10830.3 | 22081.1 | – | 0.2 | CC(C)=CCc1c(O[C@@H]2O[C@H](CO)[C@@H](O)[C@H](O)[C@H]2O)cc(O)c2c(=O)c(O[C@@H]3O[C@@H](C)[C@H](O)[C@@H](O)[C@H]3O)c(-c3ccc(O)cc3)oc12 [Epimedoside A] | – | – | – | –
-0.303 | 0.417 | – | – | 22716.1 | 17219.4 | 19967.8 | 0.057 | – | O=C1C[C@@H](c2ccc(O)c(O)c2)Oc2cc(O[C@@H]3O[C@H](CO)[C@@H](O)[C@H](O)[C@H]3O)cc(O)c21 [Eriodictyol-7-O-glucoside] | – | – | – | –
-0.338 | -0.78 | -0.559 | 13364.4 | 22288.3 | 4440.46 | – | – | – | O=c1ccc2cc(O)c(O)cc2o1 [Esculetin] | – | – | – | –
-0.43 | -1.15 | – | – | 21190.3 | 484.087 | 10837.2 | – | – | CCOC(=O)c1cc(O)c(O)c(O)c1 [Ethyl gallate] | -0.79 | – | – | –
0.583 | 0.288 | – | – | 33348.4 | 15845.8 | 24597.1 | – | 0.436 | COc1ccc(-c2cc(=O)c3c(O)c(OC)c(O)cc3o2)cc1OC [Eupatilin] | – | – | – | –
1.095 | 0.887 | – | – | 39497.8 | 22235.7 | 30866.7 | – | – | C[C@@H](O)[C@@H]1NC(=O)[C@@H](N)C[C@@H](O)[C@@H](O)NC(=O)[C@@H]2[C@@H](O)[C@@H](C)CN2C(=O)[C@H]([C@H](O)CC(N)=O)NC(=O)[C@H]([C@H](O)[C@@H](O)c2ccc(O)c(OS(=O)(=O)O)c2)NC(=O)[C@@H]2C[C@@H](O)CN2C1=O [FR179642] (H-[Orn(4R-OH,5R-OH)]T[Hyp][hTyr(3S-OH,4S-OH,3'-OSO3H)][Gln(3R-OH)][Pro(3S-OH,4S-Me)]; lactam 1-C) | – | – | – | 0.991
-0.382 | -0.766 | -0.574 | 13173.8 | 21763 | 4584.63 | – | – | – | Cc1c(O)c(C)c2c(c1O)C(=O)C[C@@H](c1ccc(O)cc1)O2 [Farrerol] | – | – | – | –
0.356 | 0.717 | – | – | 30618.6 | 20428.7 | 25523.7 | – | 0.537 | CCc1c(Cl)c(O)c(Cl)c(O)c1C(=O)O[C@H]1[C@H](O)[C@H](OC)[C@H](OC/C2=C\C=C\C[C@H](O)/C(C)=C/[C@H](CC)[C@@H](O[C@@H]3OC(C)(C)[C@@H](OC(=O)C(C)C)[C@H](O)[C@@H]3O)/C(C)=C/C(C)=C/C[C@@H]([C@@H](C)O)OC2=O)O[C@@H]1C [Fidaxomicin] | – | – | – | –
-1.392 | -0.758 | -1.075 | – | 9642.85 | 4671.16 | 7157.01 | – | – | O=c1c(O)c(-c2ccc(O)c(O)c2)oc2cc(O)ccc12 [Fisetin] | – | – | – | –
-0.895 | -0.498 | -0.697 | 11525.3 | 15599.3 | 7451.23 | – | – | – | O=C1C[C@@H](c2ccc(O)c(O)c2)Oc2c1ccc(O[C@@H]1O[C@H](CO)[C@@H](O)[C@H](O)[C@H]1O)c2O [Flavanomarein] | – | – | – | –
-0.666 | -0.177 | -0.422 | 14614.7 | – | – | – | – | – | COc1cc(O)c(C(=O)/C=C/c2ccc(O)cc2)c(OC)c1 [Flavokawain C] | – | 18356 | 10873.4 | –
